Data as given in ChEMBL document CHEMBL4364251, “Design, synthesis and biological evaluation of new quinoline derivatives as potential antitumor agents” (Eur J Med Chem, 2019).
The source made the active and inactive calls. No cut-off for these calls is given here.

Tests used:
[1] = system: RKO; test: Inhibition of colony formation in human RKO cells incubated for 24 hrs followed by compound washout and subsequent incubation for 10 to 14 days by crystal violet staining based assay; type: functional, cell-based
[2] = system: HCT-116; test: Induction of apoptosis in human HCT116 cells assessed as increase in cleaved PARP protein expression level at 4 to 8 uM incubated for 24 hrs by Western blot analysis; type: functional, cell-based
[3] = system: HCT-116; test: Induction of autophagy in human HCT116 cells assessed as increase in LC3B-2 protein expression level at 6 uM by Western blot analysis; type: functional, cell-based; settings: TDE = time-dependent effect
[4] = system: HCT-116; test: Induction of apoptosis in human HCT116 cells assessed as viable cells at 4 uM incubated for 24 hrs in presence of pan-caspase inhibitor z-VAD-FMK by annexin-V-FITC/PI staining based FACS analysis (reference value: 85.28%); type: functional; settings: HCT-116, 24 h, read-out: Activity
[5] = system: HCT-116; test: Induction of apoptosis in human HCT116 cells assessed as late apoptotic cells at 4 uM incubated for 24 hrs in presence of pan-caspase inhibitor z-VAD-FMK by annexin-V-FITC/PI staining based FACS analysis (reference value: 6.04%); type: functional
[6] = system: A2780; test: Antiproliferative activity against human A2780 cells incubated for 48 hrs by MTT assay; type: functional, cell-based; settings: A2780, 48 h
[7] = system: HCT-116; test: Growth inhibition of human HCT116 cells incubated for 24 hrs by CCK-8 assay; type: functional, cell-based
[8] = system: Mus musculus; test: Antitumour activity against mouse […] cells implanted in BALB/c mouse assessed as decrease in tumour volume at 80 mg/kg administered once every three days for 21 days post tumour implantation and measured at day 13 by caliper method; type: functional, organism-based
[9] = system: HCT-116; test: Induction of apoptosis in human HCT116 cells assessed as necrotic cells at 8 uM incubated for 24 hrs by annexin-V-FITC/PI staining based FACS analysis (reference value: 0.71 to 2.26%); type: functional
[10] = system: HCT-116; test: Induction of autophagy in human HCT116 cells assessed as decrease in ATG5 protein expression level incubated for 24 hrs by Western blot analysis; type: functional, cell-based
[11] = system: HCT-116; test: Antiproliferative activity against human HCT116 expressing p53 (-/-) at 1 to 16 uM assessed as decrease cell viability incubated for 24 hrs by CCK-8 assay; type: functional, cell-based
[12] = Toxicity in BALB/c mouse xenografted with mouse […] cells at 80 mg/kg administrated once every three days for 21 days; type: organism-based; settings: in vivo, 504 h
[13] = system: RKO; test: Growth inhibition of human RKO cells incubated for 24 hrs by CCK-8 assay; type: functional, cell-based
[14] = system: HCT-116; test: Induction of apoptosis in human HCT116 cells assessed as necrotic cells at 8 uM incubated for 24 hrs in presence of pan-caspase inhibitor z-VAD-FMK by annexin-V-FITC/PI staining based FACS analysis (reference value: 0.6%); type: functional
[15] = system: HCT-116; test: Antiproliferative activity against human HCT116 cells expressing ATG5(-/-) assessed as cell viability incubated for 24 hrs by CCK8 assay; type: functional, cell-based
[16] = Antitumour activity against mouse […] cells implanted in BALB/c mouse assessed inhibition in tumour growth at 80 mg/kg administered once every three days for 21 days post tumour implantation relative to control; type: functional; settings: read-out: TGI
[17] = system: HCT-116; test: Induction of apoptosis in human HCT116 cells assessed as early apoptotic cells at 4 uM incubated for 24 hrs in presence of pan-caspase inhibitor z-VAD-FMK by annexin-V-FITC/PI staining based FACS analysis (reference value: 8.08%); type: functional
[18] = system: HCT-116; test: Induction of apoptosis in human HCT116 cells assessed as early apoptotic cells at 4 uM incubated for 24 hrs by annexin-V-FITC/PI staining based FACS analysis (reference value: 1.77 to 3.38%); type: functional
[19] = system: HCT-116; test: Inhibition of colony formation in human HCT116 cells incubated for 24 hrs followed by compound washout and subsequent incubation for 10 to 14 days by crystal violet staining based assay; type: functional, cell-based
[20] = system: NCI-H1650; test: Antiproliferative activity against human NCI-H1650 cells incubated for 48 hrs by MTT assay; type: functional, cell-based; settings: NCI-H1650, 48 h
[21] = system: HCT-116; test: Induction of apoptosis in human HCT116 cells assessed as late apoptotic cells at 8 uM incubated for 24 hrs in presence of pan-caspase inhibitor z-VAD-FMK by annexin-V-FITC/PI staining based FACS analysis (reference value: 6.04%); type: functional
[22] = system: A549; test: Antiproliferative activity against human A549 cells incubated for 48 hrs by MTT assay; type: functional, cell-based; settings: A549, 48 h
[23] = system: HCT-116; test: Induction of apoptosis in human HCT116 cells assessed as late apoptotic cells at 8 uM incubated for 24 hrs by annexin-V-FITC/PI staining based FACS analysis (reference value: 1.55 to 1.56%); type: functional
[24] = system: HCT-116; test: Induction of autophagy in human HCT116 cells assessed as increase in LC3B-2 protein expression level incubated for 24 hrs by Western blot analysis; type: functional, cell-based
[25] = system: HCT-116; test: Induction of apoptosis in human HCT116 cells assessed as viable cells at 4 uM incubated for 24 hrs by annexin-V-FITC/PI staining based FACS analysis (reference value: 94.35 to 94.43%); type: functional; settings: HCT-116, 24 h, read-out: Activity
[26] = system: HCT-116; test: Induction of apoptosis in human HCT116 cells assessed as early apoptotic cells at 8 uM incubated for 24 hrs by annexin-V-FITC/PI staining based FACS analysis (reference value: 1.77 to 3.38%); type: functional
[27] = system: HCT-116; test: Induction of apoptosis in human HCT116 cells assessed as early apoptotic cells incubated for 24 hrs by annexin-V-FITC/PI staining based FACS analysis; type: functional, cell-based
[28] = system: HCT-116; test: Induction of apoptosis in human HCT116 cells assessed as viable cells at 8 uM incubated for 24 hrs by annexin-V-FITC/PI staining based FACS analysis (reference value: 94.35 to 94.43%); type: functional; settings: HCT-116, 24 h, read-out: Activity
[29] = system: RKO; test: Growth inhibition of human RKO cells at 1 uM by CCK-8 assay; type: functional, cell-based; settings: TDE = time-dependent effect
[30] = system: HCT-116; test: Induction of autophagy in human HCT116 cells deficient in ATG5 assessed as increase in LC3B-2 protein expression level at 4 to 8 uM by Western blot analysis; type: functional, cell-based
[31] = system: HCT-116; test: Induction of autophagy in human HCT116 cells assessed as decrease in ATG7 protein expression level incubated for 24 hrs by Western blot analysis; type: functional, cell-based
[32] = system: HCT-116; test: Induction of apoptosis in human HCT116 cells deficient in ATG7 assessed as necrotic cells at 8 uM incubated for 24 hrs by annexin-V-FITC/PI staining based FACS analysis (reference value: 5.58%); type: functional
[33] = system: HCT-116; test: Growth inhibition of human HCT116 cells at 1 uM by CCK-8 assay; type: functional, cell-based; settings: TDE = time-dependent effect
[34] = system: HCT-116; test: Induction of apoptosis in human HCT116 cells deficient in ATG7 assessed as early apoptotic cells at 8 uM incubated for 24 hrs by annexin-V-FITC/PI staining based FACS analysis (reference value: 2.32%); type: functional
[35] = system: HCT-116; test: Induction of apoptosis in human HCT116 cells deficient in ATG7 assessed as late apoptotic cells at 8 uM incubated for 24 hrs by annexin-V-FITC/PI staining based FACS analysis (Rvb =6.56%); type: functional

COc1cccc(Nc2ccnc3cc(OCCCc4ccccc4)ccc23)c1
inhibition [1]: Dose-dependent effect
Activity [2]: Active
Activity [3]: Tde
viability at 4 µM [4]: 75.1%
Activity [5]: 8.17%
IC50 [6]: 3.46 µM
growth inhibition (GI) [7]: Dose-dependent effect
Activity [8]: Active
Activity [9]: 2.19 - 5.82%
Activity [10]: Dose-dependent effect
Activity [11]: Active
Activity [12]: Non-Toxic
growth inhibition (GI) [13]: Dose-dependent effect
Activity [14]: 1.71%
Activity [15]: inactive
inhibition in vivo at 80 mg/kg [16]: 82.1%
Activity [17]: 15.45%
Activity [18]: 11.97%
inhibition [19]: Dose-dependent effect
IC50 [20]: 6.3 µM
Activity [21]: 16%
IC50 [22]: 8.22 µM
Activity [23]: 15.38 - 17.66%
Activity [24]: Dose-dependent effect
viability at 4 µM [25]: 75.4%
Activity [26]: 17.9 - 18.35%
Activity [27]: Dose-dependent effect
viability at 8 µM [28]: 60.5 to 62.2%
growth inhibition (GI) [29]: Tde
Activity [30]: inactive
Activity [31]: Dose-dependent effect
Activity [32]: 7.04%
growth inhibition (GI) [33]: Tde
Activity [34]: 5.26%
Activity [35]: 11.04%
